From paper PMC7194013 (Nature plants, 2020)

Experiments:
Experiment in all cases: in vitro enzyme assay with purified recombinant CPS and GGPP, GC-FID
Type in all cases: biochemical
[1] = target: T1, ZmCPS2 (An2) (Zea mays, UniProt A0A1D6K6U5)
T1 sequence (A0A1D6K6U5 71-825): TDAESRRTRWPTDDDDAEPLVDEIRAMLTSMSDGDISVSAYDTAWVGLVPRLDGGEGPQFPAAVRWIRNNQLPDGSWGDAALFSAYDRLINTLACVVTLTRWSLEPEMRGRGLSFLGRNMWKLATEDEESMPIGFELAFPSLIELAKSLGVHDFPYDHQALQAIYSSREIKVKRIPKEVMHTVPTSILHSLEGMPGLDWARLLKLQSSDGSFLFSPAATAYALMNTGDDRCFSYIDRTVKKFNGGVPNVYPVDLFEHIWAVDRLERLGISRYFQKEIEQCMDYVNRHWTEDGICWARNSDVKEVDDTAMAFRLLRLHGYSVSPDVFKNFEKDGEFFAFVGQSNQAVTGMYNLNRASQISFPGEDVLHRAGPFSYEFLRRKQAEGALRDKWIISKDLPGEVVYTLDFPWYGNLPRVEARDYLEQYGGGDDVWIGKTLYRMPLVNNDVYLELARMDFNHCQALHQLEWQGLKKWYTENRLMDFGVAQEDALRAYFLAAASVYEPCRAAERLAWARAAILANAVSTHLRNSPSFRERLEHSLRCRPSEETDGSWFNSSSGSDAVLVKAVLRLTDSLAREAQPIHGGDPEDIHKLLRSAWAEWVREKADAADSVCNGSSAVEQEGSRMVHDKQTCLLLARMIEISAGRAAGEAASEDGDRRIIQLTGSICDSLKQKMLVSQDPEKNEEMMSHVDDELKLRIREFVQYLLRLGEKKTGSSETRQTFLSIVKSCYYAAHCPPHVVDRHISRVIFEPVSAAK

[2] = target: T2, AtCPS (ent-copalyl diphosphate synthase, GA1) (Arabidopsis thaliana, UniProt Q38802)
T2 sequence (Q38802 85-802): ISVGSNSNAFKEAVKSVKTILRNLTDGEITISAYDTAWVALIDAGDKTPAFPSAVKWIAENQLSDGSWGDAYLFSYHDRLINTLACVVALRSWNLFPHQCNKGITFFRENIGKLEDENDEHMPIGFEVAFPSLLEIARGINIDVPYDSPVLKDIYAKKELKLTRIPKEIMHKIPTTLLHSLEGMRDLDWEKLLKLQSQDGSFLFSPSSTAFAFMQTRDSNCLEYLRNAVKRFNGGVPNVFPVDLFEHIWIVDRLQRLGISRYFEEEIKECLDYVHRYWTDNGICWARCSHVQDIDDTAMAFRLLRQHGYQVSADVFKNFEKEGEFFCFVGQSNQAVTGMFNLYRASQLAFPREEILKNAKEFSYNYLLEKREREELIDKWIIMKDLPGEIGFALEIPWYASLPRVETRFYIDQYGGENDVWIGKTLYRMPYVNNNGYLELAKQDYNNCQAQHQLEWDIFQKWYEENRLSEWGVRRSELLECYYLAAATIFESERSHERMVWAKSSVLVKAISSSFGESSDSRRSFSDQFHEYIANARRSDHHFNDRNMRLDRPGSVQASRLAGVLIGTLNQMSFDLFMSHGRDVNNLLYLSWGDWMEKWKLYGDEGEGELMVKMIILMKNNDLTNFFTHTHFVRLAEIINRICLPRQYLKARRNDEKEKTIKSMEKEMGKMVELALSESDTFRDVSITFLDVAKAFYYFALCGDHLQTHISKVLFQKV

[3] = target: T3, ZmCPS1 (An1) (Zea mays, UniProt Q41771)
T3 sequence (Q41771 64-824): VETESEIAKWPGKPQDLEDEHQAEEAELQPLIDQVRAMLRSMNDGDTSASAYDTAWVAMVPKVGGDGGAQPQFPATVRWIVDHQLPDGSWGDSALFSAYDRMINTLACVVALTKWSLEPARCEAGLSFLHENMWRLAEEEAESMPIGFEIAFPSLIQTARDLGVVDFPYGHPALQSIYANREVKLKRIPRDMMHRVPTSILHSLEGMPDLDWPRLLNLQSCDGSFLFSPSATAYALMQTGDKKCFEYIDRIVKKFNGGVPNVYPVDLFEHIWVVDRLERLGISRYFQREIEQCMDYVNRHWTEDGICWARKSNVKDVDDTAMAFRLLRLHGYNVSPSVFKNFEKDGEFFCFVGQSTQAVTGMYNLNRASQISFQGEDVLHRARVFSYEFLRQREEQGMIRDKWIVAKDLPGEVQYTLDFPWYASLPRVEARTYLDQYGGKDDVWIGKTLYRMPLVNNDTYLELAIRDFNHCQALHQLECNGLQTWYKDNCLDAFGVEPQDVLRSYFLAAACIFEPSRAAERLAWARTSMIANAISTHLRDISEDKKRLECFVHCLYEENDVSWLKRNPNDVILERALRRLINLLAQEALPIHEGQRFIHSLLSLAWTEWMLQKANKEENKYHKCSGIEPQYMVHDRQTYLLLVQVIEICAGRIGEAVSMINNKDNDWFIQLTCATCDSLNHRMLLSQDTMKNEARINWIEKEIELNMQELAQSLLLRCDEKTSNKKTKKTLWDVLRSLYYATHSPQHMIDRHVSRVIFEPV

Molecule `C[N+]1(C)CCCCC1` [DPC, 1,1-dimethyl-piperidinium chloride] has an IC50 [1] of 4000 µM, an IC50 [2] of 30 µM and an IC50 [3] of 2000 µM.
